Experiments:
[1] = target: T1, Serine/threonine-protein kinase BRSK1 (Homo sapiens) (UniProt Q8TDC3); test: Inhibition of human BRSK1 at 18.6 nM by HotSpot assay relative to control
T1 sequence (whole entry): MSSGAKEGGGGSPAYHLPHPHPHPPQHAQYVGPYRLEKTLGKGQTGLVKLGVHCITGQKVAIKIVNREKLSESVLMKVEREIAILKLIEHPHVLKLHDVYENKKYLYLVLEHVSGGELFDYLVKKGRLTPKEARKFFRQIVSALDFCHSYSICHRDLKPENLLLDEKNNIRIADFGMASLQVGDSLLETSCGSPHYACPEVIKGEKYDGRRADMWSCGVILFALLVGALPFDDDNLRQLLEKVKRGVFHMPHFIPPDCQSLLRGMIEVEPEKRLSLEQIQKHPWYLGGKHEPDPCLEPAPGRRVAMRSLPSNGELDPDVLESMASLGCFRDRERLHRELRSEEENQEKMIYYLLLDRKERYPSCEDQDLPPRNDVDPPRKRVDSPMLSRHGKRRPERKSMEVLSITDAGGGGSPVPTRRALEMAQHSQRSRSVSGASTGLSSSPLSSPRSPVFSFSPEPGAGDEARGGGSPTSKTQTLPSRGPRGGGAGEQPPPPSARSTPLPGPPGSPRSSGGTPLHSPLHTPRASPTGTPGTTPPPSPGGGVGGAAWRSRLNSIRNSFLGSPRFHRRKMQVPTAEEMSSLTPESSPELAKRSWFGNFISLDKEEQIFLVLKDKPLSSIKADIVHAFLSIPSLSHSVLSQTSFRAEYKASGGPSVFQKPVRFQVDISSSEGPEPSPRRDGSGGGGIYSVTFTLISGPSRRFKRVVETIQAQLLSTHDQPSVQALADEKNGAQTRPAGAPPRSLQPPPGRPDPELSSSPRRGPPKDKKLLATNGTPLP

[2] = target: T2, Tyrosine-protein kinase ZAP-70 (Homo sapiens) (UniProt P43403); test: Inhibition of human ZAP70 at 18.6 nM by HotSpot assay relative to control
T2 sequence (whole entry): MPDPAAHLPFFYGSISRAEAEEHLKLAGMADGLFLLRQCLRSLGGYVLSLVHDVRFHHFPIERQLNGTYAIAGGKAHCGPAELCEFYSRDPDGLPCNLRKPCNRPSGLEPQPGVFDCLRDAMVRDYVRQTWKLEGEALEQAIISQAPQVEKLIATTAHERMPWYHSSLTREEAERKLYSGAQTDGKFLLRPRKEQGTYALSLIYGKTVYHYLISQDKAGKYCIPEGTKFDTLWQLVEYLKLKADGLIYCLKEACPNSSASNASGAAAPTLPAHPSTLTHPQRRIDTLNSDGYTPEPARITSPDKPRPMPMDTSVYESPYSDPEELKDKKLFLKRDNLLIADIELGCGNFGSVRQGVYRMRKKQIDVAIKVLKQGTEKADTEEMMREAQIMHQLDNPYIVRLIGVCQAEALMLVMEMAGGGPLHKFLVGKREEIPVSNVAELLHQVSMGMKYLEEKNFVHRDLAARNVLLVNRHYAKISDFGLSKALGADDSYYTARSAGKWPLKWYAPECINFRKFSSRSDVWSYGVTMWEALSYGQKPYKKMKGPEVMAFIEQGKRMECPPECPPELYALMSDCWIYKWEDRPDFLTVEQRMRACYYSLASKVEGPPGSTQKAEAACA

[3] = target: Serine/threonine-protein kinase WNK3 (Homo sapiens) (UniProt Q9BYP7); test: Inhibition of human WNK3 at 18.6 nM by HotSpot assay relative to control
Sequence of Serine/threonine-protein kinase WNK3 (Homo sapiens) (Q9BYP7 whole entry): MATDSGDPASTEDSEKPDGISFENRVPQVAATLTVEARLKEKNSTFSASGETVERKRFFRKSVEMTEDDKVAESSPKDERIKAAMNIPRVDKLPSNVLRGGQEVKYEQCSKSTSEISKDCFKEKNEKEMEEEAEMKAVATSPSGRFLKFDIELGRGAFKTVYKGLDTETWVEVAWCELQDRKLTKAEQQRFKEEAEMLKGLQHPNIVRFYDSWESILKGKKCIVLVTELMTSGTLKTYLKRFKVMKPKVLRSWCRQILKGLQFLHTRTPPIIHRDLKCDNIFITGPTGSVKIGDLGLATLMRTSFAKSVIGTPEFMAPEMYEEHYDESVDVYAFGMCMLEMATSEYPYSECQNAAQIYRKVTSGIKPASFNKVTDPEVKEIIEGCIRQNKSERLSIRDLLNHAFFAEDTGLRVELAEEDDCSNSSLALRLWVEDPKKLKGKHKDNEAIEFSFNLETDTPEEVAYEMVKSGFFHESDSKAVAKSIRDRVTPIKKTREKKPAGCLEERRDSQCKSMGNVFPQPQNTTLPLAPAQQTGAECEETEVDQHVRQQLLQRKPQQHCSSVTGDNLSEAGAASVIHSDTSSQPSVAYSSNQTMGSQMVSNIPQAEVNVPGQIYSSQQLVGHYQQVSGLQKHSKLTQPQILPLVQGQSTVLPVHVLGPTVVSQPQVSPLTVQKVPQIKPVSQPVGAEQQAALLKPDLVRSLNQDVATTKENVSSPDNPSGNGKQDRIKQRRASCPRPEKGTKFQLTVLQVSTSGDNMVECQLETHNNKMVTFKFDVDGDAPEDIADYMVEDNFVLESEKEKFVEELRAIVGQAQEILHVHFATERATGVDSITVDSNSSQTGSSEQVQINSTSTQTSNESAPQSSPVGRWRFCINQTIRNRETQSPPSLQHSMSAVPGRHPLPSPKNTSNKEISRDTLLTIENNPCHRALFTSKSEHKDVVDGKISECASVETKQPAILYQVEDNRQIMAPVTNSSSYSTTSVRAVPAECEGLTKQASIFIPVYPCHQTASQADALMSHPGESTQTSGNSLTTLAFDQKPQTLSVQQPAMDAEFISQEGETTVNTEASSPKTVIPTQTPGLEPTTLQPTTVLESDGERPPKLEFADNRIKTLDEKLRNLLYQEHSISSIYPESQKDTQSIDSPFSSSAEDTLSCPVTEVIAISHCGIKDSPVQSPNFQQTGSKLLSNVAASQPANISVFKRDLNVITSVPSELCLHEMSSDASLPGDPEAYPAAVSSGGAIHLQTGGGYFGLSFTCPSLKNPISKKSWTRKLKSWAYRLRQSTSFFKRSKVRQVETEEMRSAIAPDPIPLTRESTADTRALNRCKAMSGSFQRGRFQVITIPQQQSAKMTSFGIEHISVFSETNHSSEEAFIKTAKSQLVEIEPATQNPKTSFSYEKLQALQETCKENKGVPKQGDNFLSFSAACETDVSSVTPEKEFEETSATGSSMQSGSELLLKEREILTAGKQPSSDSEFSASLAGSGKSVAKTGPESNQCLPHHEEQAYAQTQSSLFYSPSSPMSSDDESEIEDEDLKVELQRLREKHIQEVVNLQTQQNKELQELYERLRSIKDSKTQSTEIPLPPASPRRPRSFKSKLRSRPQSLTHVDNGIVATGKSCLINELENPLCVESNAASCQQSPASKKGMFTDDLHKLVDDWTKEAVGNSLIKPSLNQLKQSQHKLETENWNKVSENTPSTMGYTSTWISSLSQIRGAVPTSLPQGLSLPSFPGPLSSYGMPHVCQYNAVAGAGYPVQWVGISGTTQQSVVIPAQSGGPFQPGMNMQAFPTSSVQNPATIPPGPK

[4] = target: Serine/threonine-protein kinase PLK1 (Homo sapiens) (UniProt P53350); test: Inhibition of human PLK1 at 18.6 nM by HotSpot assay relative to control
Sequence of Serine/threonine-protein kinase PLK1 (Homo sapiens) (P53350 whole entry): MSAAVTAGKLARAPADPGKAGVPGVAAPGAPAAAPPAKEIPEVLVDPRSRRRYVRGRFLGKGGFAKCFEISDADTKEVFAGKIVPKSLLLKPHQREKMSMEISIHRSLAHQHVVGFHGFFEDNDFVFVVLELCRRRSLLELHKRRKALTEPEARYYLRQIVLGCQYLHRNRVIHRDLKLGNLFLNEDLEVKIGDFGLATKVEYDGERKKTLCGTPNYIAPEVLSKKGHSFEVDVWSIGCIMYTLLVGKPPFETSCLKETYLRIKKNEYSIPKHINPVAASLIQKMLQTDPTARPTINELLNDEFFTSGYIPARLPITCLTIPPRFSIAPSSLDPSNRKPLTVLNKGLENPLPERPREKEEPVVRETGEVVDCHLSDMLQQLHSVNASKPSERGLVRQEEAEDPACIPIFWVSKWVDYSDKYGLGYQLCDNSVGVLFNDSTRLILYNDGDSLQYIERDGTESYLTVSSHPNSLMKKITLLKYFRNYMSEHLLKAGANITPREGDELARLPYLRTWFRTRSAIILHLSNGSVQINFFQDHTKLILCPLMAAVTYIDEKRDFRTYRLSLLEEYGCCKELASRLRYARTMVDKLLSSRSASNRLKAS

[5] = target: T3, Serine/threonine-protein kinase Nek1 (Homo sapiens) (UniProt Q96PY6); test: Inhibition of human NEK1 at 1.82 nM by HotSpot assay relative to control
T3 sequence (whole entry): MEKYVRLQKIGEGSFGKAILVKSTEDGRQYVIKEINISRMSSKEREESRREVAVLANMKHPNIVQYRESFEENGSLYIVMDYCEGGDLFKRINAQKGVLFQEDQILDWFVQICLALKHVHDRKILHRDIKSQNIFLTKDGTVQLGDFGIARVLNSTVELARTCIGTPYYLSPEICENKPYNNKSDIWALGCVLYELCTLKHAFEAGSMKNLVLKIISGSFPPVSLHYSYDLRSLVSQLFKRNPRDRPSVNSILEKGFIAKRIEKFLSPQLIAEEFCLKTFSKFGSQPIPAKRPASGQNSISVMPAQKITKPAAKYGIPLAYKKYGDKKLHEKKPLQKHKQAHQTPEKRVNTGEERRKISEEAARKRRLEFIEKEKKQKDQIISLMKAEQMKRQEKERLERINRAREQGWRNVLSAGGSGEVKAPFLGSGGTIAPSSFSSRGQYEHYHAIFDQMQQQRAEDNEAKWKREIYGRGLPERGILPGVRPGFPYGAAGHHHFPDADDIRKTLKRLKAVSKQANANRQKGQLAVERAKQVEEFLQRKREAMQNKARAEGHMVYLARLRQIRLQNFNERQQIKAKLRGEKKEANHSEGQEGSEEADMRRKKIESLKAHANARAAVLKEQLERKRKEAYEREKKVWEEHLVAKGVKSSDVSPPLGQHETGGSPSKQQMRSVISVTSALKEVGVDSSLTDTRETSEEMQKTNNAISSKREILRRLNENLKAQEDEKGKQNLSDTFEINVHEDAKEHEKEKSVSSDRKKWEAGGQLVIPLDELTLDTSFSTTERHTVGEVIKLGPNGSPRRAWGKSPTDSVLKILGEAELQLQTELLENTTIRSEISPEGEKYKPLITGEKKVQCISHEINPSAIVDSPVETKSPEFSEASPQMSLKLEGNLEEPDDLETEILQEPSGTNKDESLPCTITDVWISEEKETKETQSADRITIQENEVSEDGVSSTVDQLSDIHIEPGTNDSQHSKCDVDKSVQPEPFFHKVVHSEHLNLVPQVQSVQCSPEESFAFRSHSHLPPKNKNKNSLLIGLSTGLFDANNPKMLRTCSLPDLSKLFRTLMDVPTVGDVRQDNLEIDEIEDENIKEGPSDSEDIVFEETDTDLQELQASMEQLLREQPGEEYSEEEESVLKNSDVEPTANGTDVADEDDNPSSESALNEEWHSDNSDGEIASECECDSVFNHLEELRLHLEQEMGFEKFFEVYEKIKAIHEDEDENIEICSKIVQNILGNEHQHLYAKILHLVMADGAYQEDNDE

[6] = target: Mitogen-activated protein kinase 1 (Homo sapiens) (UniProt P28482); test: Inhibition of human ERK2 at 1.82 nM by HotSpot assay relative to control
Sequence of Mitogen-activated protein kinase 1 (Homo sapiens) (P28482 whole entry): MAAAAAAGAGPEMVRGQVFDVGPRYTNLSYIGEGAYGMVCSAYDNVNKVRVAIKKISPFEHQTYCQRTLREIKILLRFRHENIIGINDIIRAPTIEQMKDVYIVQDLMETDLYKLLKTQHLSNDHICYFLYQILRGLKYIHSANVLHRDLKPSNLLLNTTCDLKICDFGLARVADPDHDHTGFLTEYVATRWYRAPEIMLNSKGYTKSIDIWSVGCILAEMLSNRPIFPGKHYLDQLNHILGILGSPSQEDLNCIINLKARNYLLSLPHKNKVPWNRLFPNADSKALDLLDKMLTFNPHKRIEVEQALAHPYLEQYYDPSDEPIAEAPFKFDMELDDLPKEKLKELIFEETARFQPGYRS

[7] = target: Tyrosine-protein kinase SYK (Homo sapiens) (UniProt P43405); test: Inhibition of human SYK at 1.82 nM by HotSpot assay relative to control
[8] = target: Serine/threonine-protein kinase pim-3 (Homo sapiens) (UniProt Q86V86); test: Inhibition of human PIM3 at 1.82 nM by HotSpot assay relative to control

Row | inhibition [1] [%] | inhibition [2] [%] | inhibition [3] [%] | inhibition [4] [%] | inhibition [5] [%] | inhibition [6] [%] | inhibition [7] [%] | inhibition [8] [%] | Structure (SMILES)
1 | -2.86 | -3.52 | 6.05 | -7.65 | – | – | – | – | C[C@]1(O)C[C@@H](c2nc(-c3ccc4ccc(-c5ccccc5)nc4c3)c3c(N)nccn32)C1
2 | – | – | – | – | -2.03 | -3.61 | -1.25 | 19.1 | C[C@@]1(C(=O)Nc2ccc(F)nc2)CCCN1c1nc(Nc2cc(C3CC3)n[nH]2)c2cccn2n1
